Results reported in ChEMBL document CHEMBL3091273, “Sulphonamide 1,4-dithia-7-azaspiro[4,4]nonane derivatives as gelatinase A inhibitors” (Bioorg Med Chem, 2013).
Calls of active or inactive are those of the source. The rule behind the calls is not given here.

What follows are molecules tested on Mus musculus (assay: Toxicity in […] cells xenografted Kunming mouse assessed as change in body weight at 50 mg/kg, po administered 6 days a week for two consecutive weeks (reference value: 26.03 +/- 5.04 grams)). Conditions: in vivo, 144 h.
Format: organism-based
Parameters: dose 50 mg/kg, route oral
In the case of `Cc1ccc(S(=O)(=O)N2CC3(C[C@H]2C(=O)NNC(=O)Cc2ccccc2)SCCS3)cc1`, the Activity is reported as 27.9 g. With `O=C(O)[C@@H]1CC2(CN1S(=O)(=O)c1ccc([N+](=O)[O-])cc1)SCCS2` the Activity was 25.59 g.

These molecules were tested on H22 (assay: Antimetastatic activity in […] cells xenografted Kunming mouse assessed as lung weight at 50 mg/kg, po administered 6 days a week for two consecutive weeks (reference value: 0.223 +/- 0.067 grams)). Conditions: not given.
Format: functional
With `Cc1ccc(S(=O)(=O)N2CC3(C[C@H]2C(=O)NNC(=O)Cc2ccccc2)SCCS3)cc1` the Activity was 0.27 g. Work on `O=C(O)[C@@H]1CC2(CN1S(=O)(=O)c1ccc([N+](=O)[O-])cc1)SCCS2` yielded an Activity of 0.288 g.

What follows are molecules tested on H22 (assay: Antimetastatic activity in […] cells xenografted Kunming mouse assessed as inhibition of tumor nodules formation at 50 mg/kg, po administered 6 days a week for two consecutive weeks). Conditions: H22, 144 h.
Format: functional
For `Cc1ccc(S(=O)(=O)N2CC3(C[C@H]2C(=O)NNC(=O)Cc2ccccc2)SCCS3)cc1`, the inhibition in vivo at 50 mg/kg was 34.3%. Molecule `O=C(O)[C@@H]1CC2(CN1S(=O)(=O)c1ccc([N+](=O)[O-])cc1)SCCS2` has an inhibition in vivo at 50 mg/kg of 26.3%.

Each molecule was assayed on K562 (assay: Antiproliferative activity against human K562 cells after 48 hrs by MTT assay). Conditions: not given.
Format: functional, cell-based
For `Cc1ccc(S(=O)(=O)N2CC3(C[C@H]2C(=O)NNC(=O)Cc2ccccc2)SCCS3)cc1`, the Activity was “inactive”. `O=C(O)[C@@H]1CC2(CN1S(=O)(=O)c1ccc([N+](=O)[O-])cc1)SCCS2` was tested, and the Activity was “inactive”.

What follows are molecules tested on SK-OV-3 (assay: Antiproliferative activity against human SKOV3 cells after 48 hrs by MTT assay). Conditions: SK-OV-3, 48 h.
Format: functional, cell-based
Work on `Cc1ccc(S(=O)(=O)N2CC3(C[C@H]2C(=O)NNC(=O)Cc2ccccc2)SCCS3)cc1` yielded an IC50 of 150 µM. `O=C(O)[C@@H]1CC2(CN1S(=O)(=O)c1ccc([N+](=O)[O-])cc1)SCCS2` gave an IC50 of 210 µM.

The molecules below were run on HL-60 (assay: Antiproliferative activity against human HL60 cells after 48 hrs by MTT assay). Conditions: not given.
Format: functional, cell-based
For `Cc1ccc(S(=O)(=O)N2CC3(C[C@H]2C(=O)NNC(=O)Cc2ccccc2)SCCS3)cc1`, the Activity was “inactive”. In the case of `O=C(O)[C@@H]1CC2(CN1S(=O)(=O)c1ccc([N+](=O)[O-])cc1)SCCS2`, the Activity is reported as “inactive”.

The molecules below were run against T1, Aminopeptidase N (Sus scrofa, UniProt P15145) (assay: Inhibition of pig kidney microsomal APN using L-Leu-p-nitroanilide as substrate preincubated for 30 mins by UV-vis spectrophotometry). Conditions: not given.
T1 sequence (P15145 whole entry): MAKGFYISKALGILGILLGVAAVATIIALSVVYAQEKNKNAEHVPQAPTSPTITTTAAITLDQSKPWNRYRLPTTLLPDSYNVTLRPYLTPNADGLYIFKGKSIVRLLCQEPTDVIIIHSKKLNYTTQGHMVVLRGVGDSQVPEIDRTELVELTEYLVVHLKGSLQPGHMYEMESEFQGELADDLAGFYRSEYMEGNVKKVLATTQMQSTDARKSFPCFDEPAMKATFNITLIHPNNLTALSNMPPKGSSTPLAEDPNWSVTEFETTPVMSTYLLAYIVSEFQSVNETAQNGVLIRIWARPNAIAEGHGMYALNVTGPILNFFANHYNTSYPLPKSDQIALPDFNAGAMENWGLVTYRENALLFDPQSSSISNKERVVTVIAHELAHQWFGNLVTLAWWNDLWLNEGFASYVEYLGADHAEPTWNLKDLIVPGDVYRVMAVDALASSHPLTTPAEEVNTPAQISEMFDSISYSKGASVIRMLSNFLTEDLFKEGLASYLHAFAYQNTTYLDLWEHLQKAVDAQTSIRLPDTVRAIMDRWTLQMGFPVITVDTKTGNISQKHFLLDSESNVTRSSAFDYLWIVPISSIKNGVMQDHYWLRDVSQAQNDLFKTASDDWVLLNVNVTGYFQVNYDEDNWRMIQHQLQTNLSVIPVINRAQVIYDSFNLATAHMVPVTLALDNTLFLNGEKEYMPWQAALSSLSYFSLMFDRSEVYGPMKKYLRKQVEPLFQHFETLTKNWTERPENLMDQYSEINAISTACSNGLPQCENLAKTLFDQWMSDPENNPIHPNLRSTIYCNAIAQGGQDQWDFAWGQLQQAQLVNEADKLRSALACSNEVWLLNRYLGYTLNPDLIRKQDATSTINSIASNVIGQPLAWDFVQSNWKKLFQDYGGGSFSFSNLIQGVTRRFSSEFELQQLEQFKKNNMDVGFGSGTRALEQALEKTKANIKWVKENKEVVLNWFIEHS
`O=C(NO)[C@@H]1CC2(CN1S(=O)(=O)c1ccc([N+](=O)[O-])cc1)SCCS2` was tested, and the IC50 was “Not Active”. `COC(=O)[C@@H]1CC2(CN1S(=O)(=O)c1ccc(C)cc1)SCCS2` was tested, and the IC50 was “Not Active”. For `Cc1ccc(S(=O)(=O)N2CC3(C[C@H]2C(=O)O)SCCS3)cc1`, the IC50 was “Not Active”. `COc1ccc(S(=O)(=O)N2CC3(C[C@H]2C(=O)O)SCCS3)cc1` was tested, and the IC50 was “Not Active”. With `CCOC(=O)CNC(=O)[C@@H]1CC2(CN1S(=O)(=O)c1ccc([N+](=O)[O-])cc1)SCCS2` the IC50 was “Not Active”. `O=C(Cc1ccccc1)NNC(=O)[C@@H]1CC2(CN1S(=O)(=O)c1ccccc1)SCCS2` was tested, and the IC50 was “Not Active”. With `CCOC(=O)CNC(=O)[C@@H]1CC2(CN1S(=O)(=O)c1ccccc1)SCCS2` the IC50 was “Not Active”. With `COC(=O)[C@@H]1CC2(CN1S(=O)(=O)c1ccc([N+](=O)[O-])cc1)SCCS2` the IC50 was “Not Active”. For `NNC(=O)[C@@H]1CC2(CN1S(=O)(=O)c1ccccc1)SCCS2`, the IC50 was “Not Active”. In the case of `COc1ccc(S(=O)(=O)N2CC3(C[C@H]2C(=O)NN)SCCS3)cc1`, the IC50 is reported as “Not Active”. For `COc1ccc(/C=C/C(=O)N2CC(NC(=O)c3cccnc3)CC2C(=O)NO)cc1OC` (configuration not stated), the IC50 was “Not Active”. For `Cc1ccc(S(=O)(=O)N2CC3(C[C@H]2C(=O)NNC(=O)Cc2ccccc2)SCCS3)cc1`, the IC50 was “Not Active”. `NNC(=O)[C@@H]1CC2(CN1S(=O)(=O)c1ccc([N+](=O)[O-])cc1)SCCS2` was tested, and the IC50 was “Not Active”. For `COc1ccc(S(=O)(=O)N2CC3(C[C@H]2C(=O)NO)SCCS3)cc1`, the IC50 was “Not Active”. In the case of `COC(=O)[C@@H]1CC2(CN1S(=O)(=O)c1ccccc1)SCCS2`, the IC50 is reported as “Not Active”. For `CCOC(=O)CNC(=O)[C@@H]1CC2(CN1S(=O)(=O)c1ccc(OC)cc1)SCCS2`, the IC50 was “Not Active”. For `Cc1ccc(S(=O)(=O)N2CC3(C[C@H]2C(=O)NN)SCCS3)cc1`, the IC50 was “Not Active”. With `O=C(O)[C@@H]1CC2(CN1S(=O)(=O)c1ccccc1)SCCS2` the IC50 was “Not Active”. In the case of `COc1ccc(S(=O)(=O)N2CC3(C[C@H]2C(=O)NNC(=O)Cc2ccccc2)SCCS3)cc1`, the IC50 is reported as “Not Active”. `O=C(NO)[C@@H]1CC2(CN1S(=O)(=O)c1ccccc1)SCCS2` was tested, and the IC50 was “Not Active”. With `CCOC(=O)CNC(=O)[C@@H]1CC2(CN1S(=O)(=O)c1ccc(C)cc1)SCCS2` the IC50 was “Not Active”. With `O=C(Cc1ccccc1)NNC(=O)[C@@H]1CC2(CN1S(=O)(=O)c1ccc([N+](=O)[O-])cc1)SCCS2` the IC50 was “Not Active”. For `Cc1ccc(S(=O)(=O)N2CC3(C[C@H]2C(=O)NO)SCCS3)cc1`, the IC50 was “Not Active”. For `COC(=O)[C@@H]1CC2(CN1S(=O)(=O)c1ccc(OC)cc1)SCCS2`, the IC50 was “Not Active”. In the case of `O=C(O)[C@@H]1CC2(CN1S(=O)(=O)c1ccc([N+](=O)[O-])cc1)SCCS2`, the IC50 is reported as “Not Active”.

These molecules were tested against 72 kDa type IV collagenase (Homo sapiens, UniProt P08253) (assay: Inhibition of gelatinase A (unknown origin) after 30 mins by spectrophotometry). Conditions: not given.
Chain of 72 kDa type IV collagenase (P08253 whole entry): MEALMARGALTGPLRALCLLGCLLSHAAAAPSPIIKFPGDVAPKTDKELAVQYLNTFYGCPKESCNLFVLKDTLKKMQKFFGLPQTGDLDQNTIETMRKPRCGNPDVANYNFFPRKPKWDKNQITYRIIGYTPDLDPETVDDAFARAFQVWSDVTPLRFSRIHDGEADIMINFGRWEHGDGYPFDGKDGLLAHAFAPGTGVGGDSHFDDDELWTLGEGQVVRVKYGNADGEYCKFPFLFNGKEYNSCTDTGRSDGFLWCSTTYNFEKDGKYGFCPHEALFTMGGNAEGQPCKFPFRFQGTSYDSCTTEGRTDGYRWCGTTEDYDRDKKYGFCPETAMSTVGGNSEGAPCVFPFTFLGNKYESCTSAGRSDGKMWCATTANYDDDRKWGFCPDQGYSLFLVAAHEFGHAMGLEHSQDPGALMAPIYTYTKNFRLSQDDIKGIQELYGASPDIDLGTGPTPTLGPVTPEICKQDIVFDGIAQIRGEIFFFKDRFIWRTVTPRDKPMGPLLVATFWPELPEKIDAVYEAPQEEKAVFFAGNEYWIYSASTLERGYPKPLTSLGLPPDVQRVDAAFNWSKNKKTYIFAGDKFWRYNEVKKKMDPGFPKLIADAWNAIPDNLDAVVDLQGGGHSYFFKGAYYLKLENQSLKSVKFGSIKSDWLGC
`O=C(NO)[C@@H]1CC2(CN1S(=O)(=O)c1ccc([N+](=O)[O-])cc1)SCCS2` gave an IC50 of 786 nM. Molecule `COC(=O)[C@@H]1CC2(CN1S(=O)(=O)c1ccc(C)cc1)SCCS2` has an IC50 of 878 nM. Molecule `Cc1ccc(S(=O)(=O)N2CC3(C[C@H]2C(=O)O)SCCS3)cc1` has an IC50 of 2780 nM. With `COc1ccc(S(=O)(=O)N2CC3(C[C@H]2C(=O)O)SCCS3)cc1` the IC50 was 9480 nM. With `CCOC(=O)CNC(=O)[C@@H]1CC2(CN1S(=O)(=O)c1ccc([N+](=O)[O-])cc1)SCCS2` the IC50 was 325 nM. Work on `O=C(Cc1ccccc1)NNC(=O)[C@@H]1CC2(CN1S(=O)(=O)c1ccccc1)SCCS2` yielded an IC50 of 5440 nM. For `CCOC(=O)CNC(=O)[C@@H]1CC2(CN1S(=O)(=O)c1ccccc1)SCCS2`, the IC50 was 678 nM. Work on `COC(=O)[C@@H]1CC2(CN1S(=O)(=O)c1ccc([N+](=O)[O-])cc1)SCCS2` yielded an IC50 of 77900 nM. `NNC(=O)[C@@H]1CC2(CN1S(=O)(=O)c1ccccc1)SCCS2` was tested, and the IC50 was 6560 nM. Molecule `COc1ccc(S(=O)(=O)N2CC3(C[C@H]2C(=O)NN)SCCS3)cc1` has an IC50 of 10800 nM. Molecule `COc1ccc(/C=C/C(=O)N2CC(NC(=O)c3cccnc3)CC2C(=O)NO)cc1OC` (configuration not stated) has an IC50 of 1020 nM. `Cc1ccc(S(=O)(=O)N2CC3(C[C@H]2C(=O)NNC(=O)Cc2ccccc2)SCCS3)cc1` gave an IC50 of 679 nM. `NNC(=O)[C@@H]1CC2(CN1S(=O)(=O)c1ccc([N+](=O)[O-])cc1)SCCS2` was tested, and the IC50 was 20600 nM. With `COc1ccc(S(=O)(=O)N2CC3(C[C@H]2C(=O)NO)SCCS3)cc1` the IC50 was 516 nM. `COC(=O)[C@@H]1CC2(CN1S(=O)(=O)c1ccccc1)SCCS2` gave an IC50 of 3090 nM. `CCOC(=O)CNC(=O)[C@@H]1CC2(CN1S(=O)(=O)c1ccc(OC)cc1)SCCS2` gave an IC50 of 325 nM. In the case of `Cc1ccc(S(=O)(=O)N2CC3(C[C@H]2C(=O)NN)SCCS3)cc1`, the IC50 is reported as 429000 nM. `O=C(O)[C@@H]1CC2(CN1S(=O)(=O)c1ccccc1)SCCS2` showed an IC50 of 28200 nM. `COc1ccc(S(=O)(=O)N2CC3(C[C@H]2C(=O)NNC(=O)Cc2ccccc2)SCCS3)cc1` showed an IC50 of 386 nM. Work on `O=C(NO)[C@@H]1CC2(CN1S(=O)(=O)c1ccccc1)SCCS2` yielded an IC50 of 877 nM. In the case of `CCOC(=O)CNC(=O)[C@@H]1CC2(CN1S(=O)(=O)c1ccc(C)cc1)SCCS2`, the IC50 is reported as 530 nM. `O=C(Cc1ccccc1)NNC(=O)[C@@H]1CC2(CN1S(=O)(=O)c1ccc([N+](=O)[O-])cc1)SCCS2` gave an IC50 of 1800 nM. `Cc1ccc(S(=O)(=O)N2CC3(C[C@H]2C(=O)NO)SCCS3)cc1` was tested, and the IC50 was 678 nM. For `COC(=O)[C@@H]1CC2(CN1S(=O)(=O)c1ccc(OC)cc1)SCCS2`, the IC50 was 7480 nM. With `O=C(O)[C@@H]1CC2(CN1S(=O)(=O)c1ccc([N+](=O)[O-])cc1)SCCS2` the IC50 was 835 nM.
